pKi: −log10 of the molar value. Active and inactive are the calls of the source. The rule behind the calls is not given here.
Assays:
[1] = tested on: Mus musculus; experiment: Antinociceptive activity in CD-1 mouse mechanical stimulus-induced nociception model assessed as struggle response latency at 0.125 to 0.5 mg/kg, sc administered 30 mins prior to test by paw pressure test; type: functional, organism-based
[2] = tested on: Mus musculus; experiment: Antinociceptive activity in CD-1 mouse mechanical stimulus-induced nociception model assessed as struggle response latency at 0.25 mg/kg, sc administered 30 mins prior to test in presence of centrally penetrant opioid antagonist Nx by paw pressure test; type: functional, organism-based
[3] = tested on: Mus musculus; experiment: Antinociceptive activity in CD-1 mouse mechanical stimulus-induced nociception model assessed as struggle response latency at 0.25 mg/kg, sc administered 30 mins prior to test in presence of peripherally restricted opioid antagonist Nx-M by paw pressure test; type: functional, organism-based
[4] = tested on: Mus musculus; experiment: Antinociceptive activity in CD-1 mouse mechanical stimulus-induced nociception model assessed as struggle response latency at 0.25 mg/kg, sc administered 30 mins prior to test in presence of sigma1 receptor agonist PRE-084 by paw pressure test; type: functional, organism-based
[5] = tested on: Mus musculus; experiment: Antinociceptive activity in CD-1 mouse mechanical stimulus-induced nociception model assessed as struggle response latency time at 0.5 mg/kg, sc administered 30 mins prior to test by paw pressure test; type: functional
[6] = tested on: Mus musculus; experiment: Antinociceptive activity in CD-1 mouse mechanical stimulus-induced nociception model assessed as struggle response latency time at 0.5 mg/kg, sc administered 30 mins prior to test in presence of centrally penetrant opioid antagonist Nx by paw pressure test; type: functional, organism-based
[7] = target: Mu-type opioid receptor (Rattus norvegicus, UniProt P33535); experiment: Displacement of [3H] DAMGO from mu opioid receptor in Sprague-Dawley rat whole brain membranes after 2.5 hrs by liquid scintillation method; parameters: species or system Membrane
Sequence of Mu-type opioid receptor (Rattus norvegicus, UniProt P33535) (P33535 whole entry): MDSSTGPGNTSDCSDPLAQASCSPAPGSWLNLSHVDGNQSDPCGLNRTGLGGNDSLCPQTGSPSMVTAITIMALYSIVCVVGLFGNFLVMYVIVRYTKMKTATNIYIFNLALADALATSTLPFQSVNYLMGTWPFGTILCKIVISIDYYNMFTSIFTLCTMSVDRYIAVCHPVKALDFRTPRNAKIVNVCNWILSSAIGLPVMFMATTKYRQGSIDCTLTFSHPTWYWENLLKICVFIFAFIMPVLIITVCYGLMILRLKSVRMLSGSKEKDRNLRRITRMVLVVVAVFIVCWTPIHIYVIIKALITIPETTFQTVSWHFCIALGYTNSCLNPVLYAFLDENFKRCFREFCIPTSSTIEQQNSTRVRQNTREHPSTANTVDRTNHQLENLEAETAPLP

[8] = tested on: Mus musculus; experiment: Antinociceptive activity in CD-1 mouse mechanical stimulus-induced nociception model assessed as struggle response latency time at 0.5 mg/kg, sc administered 30 mins prior to test in presence of peripherally restricted opioid antagonist Nx-M by paw pressure test; type: functional, organism-based
[9] = tested on: Mus musculus; experiment: Antinociceptive activity in CD-1 mouse mechanical stimulus-induced nociception model assessed as struggle response latency time at 0.5 mg/kg, sc administered 30 mins prior to test in presence of sigma1 receptor agonist PRE-084 by paw pressure test; type: functional, organism-based
[10] = tested on: Mus musculus; experiment: Analgesic activity in mouse administered subcutaneously by hot plate assay; settings: sc
[11] = tested on: Mus musculus; experiment: Antinociceptive activity in sc dosed CD-1 mouse mechanical stimulus-induced nociception model assessed as struggle response latency administered 30 mins prior to test by paw pressure test; type: functional, organism-based
[12] = tested on: Mus musculus; experiment: Antinociceptive activity in CD-1 mouse mechanical stimulus-induced nociception model assessed as struggle response latency at 8 mg/kg, sc administered 30 mins prior to test in presence of centrally penetrant opioid antagonist Nx by paw pressure test; type: functional, organism-based
[13] = tested on: Mus musculus; experiment: Antinociceptive activity in CD-1 mouse mechanical stimulus-induced nociception model assessed as struggle response latency at 8 mg/kg, sc administered 30 mins prior to test in presence of peripherally restricted opioid antagonist Nx-M by paw pressure test; type: functional, organism-based
[14] = tested on: Mus musculus; experiment: Antinociceptive activity in CD-1 mouse mechanical stimulus-induced nociception model assessed as struggle response latency at 8 mg/kg, sc administered 30 mins prior to test in presence of sigma1 receptor agonist PRE-084 by paw pressure test; type: functional, organism-based
[15] = target: Kappa-type opioid receptor (Homo sapiens, UniProt P41145); experiment: Binding affinity to kappa opioid receptor (unknown origin)
Sequence of Kappa-type opioid receptor (Homo sapiens, UniProt P41145) (P41145 whole entry): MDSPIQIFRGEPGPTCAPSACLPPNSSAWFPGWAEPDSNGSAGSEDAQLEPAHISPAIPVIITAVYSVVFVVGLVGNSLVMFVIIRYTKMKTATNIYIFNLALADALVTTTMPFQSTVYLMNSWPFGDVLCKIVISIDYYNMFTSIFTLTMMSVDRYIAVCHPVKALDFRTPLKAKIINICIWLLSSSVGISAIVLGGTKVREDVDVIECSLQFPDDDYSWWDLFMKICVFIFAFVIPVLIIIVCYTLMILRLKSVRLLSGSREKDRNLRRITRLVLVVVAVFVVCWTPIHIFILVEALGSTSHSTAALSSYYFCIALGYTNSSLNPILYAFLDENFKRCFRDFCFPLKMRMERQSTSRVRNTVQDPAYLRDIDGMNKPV

[16] = target: Delta-type opioid receptor (Homo sapiens, UniProt P41143); experiment: Binding affinity to delta opioid receptor (unknown origin)
Sequence of Delta-type opioid receptor (Homo sapiens, UniProt P41143) (P41143 whole entry): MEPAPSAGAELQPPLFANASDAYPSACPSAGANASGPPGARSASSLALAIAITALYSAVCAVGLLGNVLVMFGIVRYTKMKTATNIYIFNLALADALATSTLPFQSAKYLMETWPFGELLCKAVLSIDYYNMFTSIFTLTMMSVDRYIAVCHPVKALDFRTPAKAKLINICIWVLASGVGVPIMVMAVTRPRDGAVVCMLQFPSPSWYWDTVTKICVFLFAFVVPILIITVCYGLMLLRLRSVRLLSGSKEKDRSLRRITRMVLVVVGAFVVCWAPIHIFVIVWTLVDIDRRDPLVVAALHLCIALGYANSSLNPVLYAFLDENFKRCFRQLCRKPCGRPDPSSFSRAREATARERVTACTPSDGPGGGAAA

[17] = target: Sigma non-opioid intracellular receptor 1 (Mus musculus, UniProt O55242); experiment: Displacement of [3H]-(+)-pentazocin from sigma1 receptor in mouse brain P2 membranes after 240 mins by liquid scintillation counting method; type: cell membranes
Sequence of Sigma non-opioid intracellular receptor 1 (O55242 whole entry): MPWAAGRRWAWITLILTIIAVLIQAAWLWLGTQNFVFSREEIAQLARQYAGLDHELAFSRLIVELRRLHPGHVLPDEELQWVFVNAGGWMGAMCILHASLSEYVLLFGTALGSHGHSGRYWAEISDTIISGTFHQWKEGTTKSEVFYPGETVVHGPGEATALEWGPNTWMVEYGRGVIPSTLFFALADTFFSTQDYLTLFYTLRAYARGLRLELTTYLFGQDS

[18] = target: Mu-type opioid receptor (Cavia porcellus, UniProt P97266); experiment: Displacement of [3H]-[D-Ala2,MePhe4Gly-ol5]enkephalin from mu opioid receptor in guinea pig brain membranes after 40 mins; type: cell membranes, Membrane
Sequence of Mu-type opioid receptor (Cavia porcellus, UniProt P97266) (P97266 whole entry): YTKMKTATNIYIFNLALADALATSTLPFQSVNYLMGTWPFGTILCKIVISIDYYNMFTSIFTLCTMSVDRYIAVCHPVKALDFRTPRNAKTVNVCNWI

[19] = Displacement of [3H]-[D-Ala2,D-Leu5]enkephalin from delta opioid receptor in guinea pig brain membranes after 40 mins; type: cell membranes, Cavia porcellus, Membrane
[20] = target: T1, Kappa-type opioid receptor (Cavia porcellus, UniProt P41144); experiment: Displacement of [3H]-Ethylketazocine from kappa opioid receptor in guinea pig brain membranes after 40 mins; type: cell membranes, Membrane
T1 sequence (P41144 whole entry): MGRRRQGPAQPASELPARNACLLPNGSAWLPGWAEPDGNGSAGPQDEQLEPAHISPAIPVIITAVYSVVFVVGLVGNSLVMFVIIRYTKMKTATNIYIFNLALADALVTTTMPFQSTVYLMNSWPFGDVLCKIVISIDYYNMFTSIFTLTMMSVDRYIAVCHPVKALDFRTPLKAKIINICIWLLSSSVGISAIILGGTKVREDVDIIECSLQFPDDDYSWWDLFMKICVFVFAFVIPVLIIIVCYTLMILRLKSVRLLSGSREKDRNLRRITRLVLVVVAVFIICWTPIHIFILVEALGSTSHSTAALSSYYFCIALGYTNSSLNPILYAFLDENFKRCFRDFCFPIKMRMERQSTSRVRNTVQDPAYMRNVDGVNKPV

[21] = target: Delta-type opioid receptor (Rattus norvegicus, UniProt P33533); experiment: Displacement of [3H]DPDPE from delta opioid receptor in Sprague-Dawley rat brain membranes by liquid scintillation counter method; type: cell membranes, Membrane
Sequence of Delta-type opioid receptor (Rattus norvegicus, UniProt P33533) (P33533 whole entry): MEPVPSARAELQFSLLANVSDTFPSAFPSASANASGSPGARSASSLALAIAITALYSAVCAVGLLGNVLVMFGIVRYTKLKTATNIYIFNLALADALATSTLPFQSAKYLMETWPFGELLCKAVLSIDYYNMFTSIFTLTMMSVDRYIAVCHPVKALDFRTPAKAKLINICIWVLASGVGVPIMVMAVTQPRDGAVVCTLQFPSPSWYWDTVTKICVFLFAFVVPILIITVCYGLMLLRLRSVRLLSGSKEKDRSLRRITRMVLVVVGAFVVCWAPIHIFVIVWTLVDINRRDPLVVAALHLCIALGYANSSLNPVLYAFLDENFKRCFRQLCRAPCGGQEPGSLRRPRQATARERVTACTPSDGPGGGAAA

[22] = target: T1, Kappa-type opioid receptor; experiment: Displacement of [3H]U69,593 from kappa opioid receptor in guinea pig brain membranes by liquid scintillation counter method; type: cell membranes, Membrane
[23] = tested on: Mus musculus; experiment: Antinociceptive activity in CD-1 mouse mechanical stimulus-induced nociception model assessed as struggle response latency at 4 mg/kg, sc administered 30 mins prior to test in presence of centrally penetrant opioid antagonist Nx by paw pressure test; type: functional, organism-based
[24] = tested on: Mus musculus; experiment: Antinociceptive activity in CD-1 mouse mechanical stimulus-induced nociception model assessed as struggle response latency at 4 mg/kg, sc administered 30 mins prior to test in presence of peripherally restricted opioid antagonist Nx-M by paw pressure test; type: functional, organism-based
[25] = tested on: Mus musculus; experiment: Antinociceptive activity in CD-1 mouse mechanical stimulus-induced nociception model assessed as struggle response latency at 4 mg/kg, sc administered 30 mins prior to test in presence of sigma1 receptor agonist PRE-084 by paw pressure test; type: functional, organism-based
[26] = tested on: Mus musculus; experiment: Antinociceptive activity in CD-1 mouse mechanical stimulus-induced nociception model assessed as struggle response latency at 2 to 8 mg/kg, sc administered 30 mins prior to test by paw pressure test; type: functional, organism-based

With `C[C@H]1[C@H]2Cc3ccc(O)cc3[C@]1(C)CCN2CCc1ccccc1` the Activity [1] was “Active”, the Activity [2] was “inactive” and the Activity [3] was “inactive”. For the same molecule, the Activity [4] was “inactive”, the Time [5] was 20 s and the Activity [6] was “inactive”. For the same molecule, the pKi [7] was 7.21, the Activity [8] was “inactive” and the Activity [9] was “inactive”.
With `CN1CC[C@]23c4c5ccc(O)c4O[C@H]2[C@@H](O)C=C[C@H]3[C@H]1C5` [MORPHINE] the ED50 [10] was 6.7 mg/kg, the Activity [11] was “Dose-dependent effect” and the Activity [12] was “inactive”. For the same molecule, the Activity [13] was “Active” and the Activity [14] was “Active”.
Molecule `O=C(OCCN1CCOCC1)C1(c2ccccc2)CCCCC1` has a pKi [15] of under 5.40 and a pKi [16] of under 5.40.
Work on `C=CC[N+]1(C)CC[C@]23c4c5ccc(O)c4O[C@H]2C(=O)CC[C@@]3(O)[C@H]1C5` (some centres not stated) [NALOXONE METHIODIDE] yielded a pKi [17] of under 6.00, a pKi [18] of 7.74 and a pKi [19] of 6.54. For the same molecule, the pKi [20] was 6.73.
In the case of `C[C@@H]1[C@@H]2Cc3ccc(O)cc3[C@@]1(C)CCN2CCc1ccccc1`, the pKi [21] was 6.91, the pKi [22] was 6.76 and the Activity [23] was “inactive”. The Activity [24] was “inactive”, the Activity [25] was “inactive” and the pKi [7] was 8.41. For the same molecule, the Activity [26] was “Active”.
